Source: paper PMC7778589, “Photosensitizer-based multimodal PSMA-targeting ligands for intraoperative detection of prostate cancer” (Theranostics, 2021)

What was measured:
[1] = target: T1, PSMA-expressing LS174T cells (LS174T-PSMA) (Homo sapiens, UniProt Q04609); test: Binding and internalization assay with 111In-labeled ligands; format: cell-based; conditions: 2 h 37 °C
T1 construct: expressed in transfected cells; host or cells: LS174T colon carcinoma cells (human), stably transfected with pcDNA3.1-hPSMA
T1 sequence (Q04609 whole entry): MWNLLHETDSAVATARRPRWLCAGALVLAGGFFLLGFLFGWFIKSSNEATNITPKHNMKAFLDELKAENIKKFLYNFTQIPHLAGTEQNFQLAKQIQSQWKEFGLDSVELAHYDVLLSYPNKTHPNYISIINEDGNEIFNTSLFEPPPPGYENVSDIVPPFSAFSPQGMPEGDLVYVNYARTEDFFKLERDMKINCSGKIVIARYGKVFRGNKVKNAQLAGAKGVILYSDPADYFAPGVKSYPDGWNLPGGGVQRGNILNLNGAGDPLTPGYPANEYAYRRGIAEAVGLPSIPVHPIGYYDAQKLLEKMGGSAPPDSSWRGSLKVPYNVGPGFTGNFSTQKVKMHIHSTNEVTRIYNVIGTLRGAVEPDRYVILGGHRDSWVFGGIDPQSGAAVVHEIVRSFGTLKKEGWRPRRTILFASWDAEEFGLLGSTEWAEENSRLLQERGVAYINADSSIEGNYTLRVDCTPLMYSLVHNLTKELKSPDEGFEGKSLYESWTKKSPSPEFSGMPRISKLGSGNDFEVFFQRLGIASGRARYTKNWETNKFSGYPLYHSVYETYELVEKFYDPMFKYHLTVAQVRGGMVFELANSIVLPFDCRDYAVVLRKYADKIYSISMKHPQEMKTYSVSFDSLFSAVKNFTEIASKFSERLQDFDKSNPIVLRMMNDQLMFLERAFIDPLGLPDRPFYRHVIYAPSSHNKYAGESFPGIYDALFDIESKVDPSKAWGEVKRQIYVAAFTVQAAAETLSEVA
Method: Cell lines were purchased from the American Type Culture Collection. LS174T colon carcinoma cells were stably transfected with human PSMA using the plasmid pcDNA3.1-hPSMA and cultured in RPMI 1640 medium supplemented with 2 mM glutamine, 10% FCS, and 0.3 mg/ml G418 at 37 °C in a humidified atmosphere with 5% CO2 [5].
Binding and internalization characteristics of all ligands were compared using LS174T-PSMA and wildtype LS174T cells. Cells were cultured to confluency in 6-wells plates followed by incubation at 37 °C for 2 h in 1 ml binding buffer (RPMI/0.5% BSA) with 50,000 counts per minute (cpm) of ^111In-labeled ligand (0.1-0.25 pmol/well). Nonspecific binding was determined by coincubation with 2-(phosphonomethyl)pentane-1,5-dioic acid (2-PMPA, 21.57 µM). PSMA-specific binding was defined as nonspecific binding subtracted from total binding. To retrieve the membrane-bound fraction, cells were washed with PBS twice and incubated with acid buffer (0.1 M acetic acid, 154 mM NaCl, pH 2.6) for 10 minutes at 0 °C. After incubation, the membrane bound fraction (in acid buffer) was collected, cells were washed, lysed with 0.1 M NaOH and cell lysis (intercellular activity) was collected. Membrane-bound activity and intercellular activity fractions were measured in a gamma-counter (2480 WIZARD^2 Automatic Gamma Counter, PerkinElmer), [25]. Human serum was used to determine the in vitro serum stability of the multimodal ligands (0.8 µg/ml serum, 5 MBq/μg labeling). After incubation for 2 h at 37°C, serum proteins were precipitated by adding a 1:1 (v/v) volume of acetonitrile followed by 5 min of centrifugation at 3220×g. Stability was evaluated by RP-HPLC analysis after 2 h of incubation at 37 °C. […] Experimental details are described in the supplementary materials and methods.

[2] = Lipophilicity, PBS/n-octanol; format: physicochemical; conditions: radiolabeled ligand
Method: Tubes were vortexed vigorously for 1 min and centrifuged for 5 min at 201×g for phase separation. The concentration of radioactivity in a defined volume of each layer was measured in a well-type gamma-counter.

[3] = test system: LS174T-PSMA and LS174T xenografts; test: Biodistribution of 111In-labeled multimodal ligands; format: in vivo, BALB/c nude mice; conditions: 0.3 nmol, 2 h p.i.
Method: Animal experiments were performed in 8-10 weeks old male BALB/c nude mice (Janvier). Animals were housed in individually ventilated cages (Blue line IVC, 4-5 mice per cage) under nonsterile standard conditions with cage enrichment present and free access to chlorophyll-free animal chow (Sniff GmbH) and water. Mice were subcutaneously inoculated with 3.0 x 10^6 LS174T-PSMA cells in the left flank and 1.5 × 10^6 LS174T cells in the right flank, diluted in 200 μL of complete RPMI 1640 medium. Eleven days after tumor cell inoculation when xenografts were approximately 0.1 cm^3, tracers were injected intravenously via the tail vein. The researchers were not blinded for the experimental groups and tumor-bearing mice were block-randomized into groups based on tumor size. All experiments were approved by the institutional Animal Welfare Committee of the Radboud university medical center and were conducted in accordance to the guidelines of the Revised Dutch Act on Animal Experimentation.
Mice were injected intravenously with 10 MBq ^111In-labeled PSMA ligands (0.3 nmol, molar activity 33.3 MBq/nmol) in PBS/0.5% BSA. Two hours post injection, mice were euthanized by CO2/O2-asphyxation and images were acquired with the IVIS fluorescence imaging system (Xenogen VivoVision IVIS Lumina II, Caliper Life Sciences), using an acquisition time of 10 s. Subsequently, µSPECT/CT images were acquired (U-SPECT II, MILabs) with a 1.0 mm diameter pinhole mouse collimator tube [26]. Mice were scanned for 30 min followed by a CT scan (spatial resolution 160 μm, 65 kV, 615 μA) for anatomical reference. µSPECT/CT scans were reconstructed with MILabs reconstruction software, using an ordered-subset expectation maximization algorithm, energy windows 154 - 188 keV and 220-270 keV, 3 iterations, 16 subsets, voxel size of 0.4 mm. SPECT/CT scans were analyzed and maximum intensity projections (MIPs) were created using the Inveon Research Workplace software version 4.1 (Siemens Preclinical Solutions). NIRF images were analyzed using Living Image software version 4.2 (Caliper Life Sciences). Tissues of interest were dissected, weighed and measured for radioactivity in a gamma-counter as described above. In the fluorescence-guided surgery feasibility study, pre-operative imaging was performed to visualize tumor tissue. After white light resection, NIRF imaging was repeated to assess if any remaining tumor was present.

Structure (SMILES) | Internalized fraction [1] | Membrane bound fraction [1] | LogD [2] | Adrenals [3] [%ID/g] | Blood [3] [%ID/g] | Bone [3] [%ID/g] | Bone marrow [3] [%ID/g] | Duodenum [3] [%ID/g] | Heart [3] [%ID/g] | Kidney [3] [%ID/g] | Liver [3] [%ID/g] | Lung [3] [%ID/g] | Muscle [3] [%ID/g] | Pancreas [3] [%ID/g] | Prostate [3] [%ID/g] | Salivary glands [3] [%ID/g] | Spleen [3] [%ID/g] | Stomach [3] [%ID/g] | Tumor+ LS174T-PSMA [3] [%ID/g] | Tumor- LS174T [3] [%ID/g] | further results
C[Si](C)(CCC[N+](CCCS(=O)(=O)O)(CCCS(=O)(=O)O)CCCS(=O)(=O)O)O[Si-2]123(O[Si](C)(C)CCC[N+](CCCS(=O)(=O)O)(CCCS(=O)(=O)O)CCCS(=O)(=O)O)n4c5c6ccccc6c4N=C4c6cccc(OCCCOC(=O)NCCCCCC(=O)NCCCC[C@H](NC(=O)CCC(C(=O)O)N7CCN(CC(=O)O)CCN(CC(=O)O)CCN(CC(=O)O)CC7)C(=O)N[C@@H](CCC(=O)O)C(=O)N[C@@H](CCC(=O)O)C(=O)NCCCCCC(=O)NCCCC[C@H](NC(=O)N[C@@H](CCC(=O)O)C(=O)O)C(=O)O)c6C(=[N+]41)N=c1c4ccccc4c(n12)=NC1=[N+]3C(=N5)c2ccccc21.[Na+].[Na+].[Na+].[Na+] (stereo partly drawn) [N144] | 2.5 ± 0.05 | 0.3 ± 0.03 | -2.4 ± 0.01 | 1.3 | 0.2 | 0.5 | 0.3 | 0.3 | 0.3 | 70.3 | 0.6 | 0.4 | 0.2 | 0.2 | 0.5 | 0.4 | 1.1 | 0.3 | 11.7 | 0.5 | Tumor/Blood ratio [3]: 71.9; Tumor/Kidney ratio [3]: 0.2; Tumor/Liver ratio [3]: 21.3; Tumor/Muscle ratio [3]: 110; Tumor/Negative tumor ratio [3]: 28.8; Tumor/Prostate ratio [3]: 32; Tumor/Salivary gland ratio [3]: 30.3; Tumor/Spleen ratio [3]: 12.3
C[Si](C)(CCC[N+](CCCS(=O)(=O)O)(CCCS(=O)(=O)O)CCCS(=O)(=O)O)O[Si-2]123(O[Si](C)(C)CCC[N+](CCCS(=O)(=O)O)(CCCS(=O)(=O)O)CCCS(=O)(=O)O)n4c5c6ccccc6c4N=C4c6cccc(OCCCOC(=O)NCCCCCC(=O)NCCCC[C@H](NC(=O)CCOCCOCCOCCOCCNC(=O)CCC(C(=O)O)N7CCN(CC(=O)O)CCN(CC(=O)O)CCN(CC(=O)O)CC7)C(=O)N[C@H](Cc7ccccc7)C(=O)N[C@@H](CCC(=O)O)C(=O)N[C@@H](CCC(=O)O)C(=O)NCCCCCC(=O)NCCCC[C@H](NC(=O)N[C@@H](CCC(=O)O)C(=O)O)C(=O)O)c6C(=[N+]41)N=c1c4ccccc4c(n12)=NC1=[N+]3C(=N5)c2ccccc21.[Na+].[Na+].[Na+].[Na+] (stereo partly drawn) [NJ26] | 1.8 ± 0.03 | 0.5 ± 0.05 | -2.4 ± 0.13 | 1.5 | 0.3 | 0.2 | 0.4 | 0.3 | 0.3 | 59.9 | 0.6 | 0.5 | 0.2 | 0.2 | 0.5 | 0.4 | 0.9 | 0.3 | 11.5 | 0.4 | Tumor/Blood ratio [3]: 49.1; Tumor/Kidney ratio [3]: 0.2; Tumor/Liver ratio [3]: 21.3; Tumor/Muscle ratio [3]: 116.4; Tumor/Negative tumor ratio [3]: 31.7; Tumor/Prostate ratio [3]: 29.4; Tumor/Salivary gland ratio [3]: 35; Tumor/Spleen ratio [3]: 14.2
C[Si](C)(CCC[N+](CCCS(=O)(=O)O)(CCCS(=O)(=O)O)CCCS(=O)(=O)O)O[Si-2]123(O[Si](C)(C)CCC[N+](CCCS(=O)(=O)O)(CCCS(=O)(=O)O)CCCS(=O)(=O)O)n4c5c6ccccc6c4N=C4c6cccc(OCCCOC(=O)NCCCCCC(=O)NCCCC[C@H](NC(=O)CCOCCOCCOCCOCCNC(=O)CN7CCN(CC(=O)O)CCN(CC(=O)O)CCN(CC(=O)O)CC7)C(=O)N[C@H](Cc7ccccc7)C(=O)N[C@@H](CCC(=O)O)C(=O)N[C@@H](CCC(=O)O)C(=O)NCCCCCC(=O)NCCCC[C@H](NC(=O)N[C@@H](CCC(=O)O)C(=O)O)C(=O)O)c6C(=[N+]41)N=c1c4ccccc4c(n12)=NC1=[N+]3C(=N5)c2ccccc21.[Na+].[Na+].[Na+].[Na+] [NJ27] | 1.1 ± 0.05 | 0.3 ± 0.04 | -2.3 ± 0.11 | 0.7 | 0.2 | 0.2 | 0.4 | 0.2 | 0.3 | 51.4 | 0.6 | 0.3 | 0.1 | 0.2 | 0.3 | 0.3 | 0.6 | 0.2 | 9.1 ± 2 | 0.4 | Tumor/Blood ratio [3]: 62.6; Tumor/Kidney ratio [3]: 0.2; Tumor/Liver ratio [3]: 15.9; Tumor/Muscle ratio [3]: 106.4; Tumor/Negative tumor ratio [3]: 27.1; Tumor/Prostate ratio [3]: 32.7; Tumor/Salivary gland ratio [3]: 33.2; Tumor/Spleen ratio [3]: 17.3
